Source: ChEMBL document CHEMBL6087488, “Development of the First-in-Class FEM1B-Recruiting Histone Deacetylase Degraders” (J Med Chem, 2025)
Activity calls are given as the source filed them. The rule behind the calls is not given here.

Assays:
MM1.S [1] = assay: Induction of apoptosis in human MM1.S cells assessed as increase in early apoptotic cells at 10 uM measured after 48 hrs by annexin V-FITC/PI staining based assay; format: functional, cell-based
MM1.S [2] = assay: Induction of cell cycle arrest in human MM1.S cells assessed as reduction in cells at […] phase at 10 uM measured after 48 hrs by propidium iodide based flow cytometry; format: functional
MV4-11 = assay: Antiproliferative activity against human MV4-11 cells assessed as cell viability measured after 72 hrs incubation by MTT assay; format: functional, cell-based; settings: MV4-11, 72 h
[3] = target: T1, Protein fem-1 homolog B/Histone deacetylase 1 (Homo sapiens, UniProt Q13547+Q9UK73); assay: PROTAC activity at FEM1B/HDAC1 in human MV4-11 cell lysate assessed as protein degradation at 10 uM measured after 24 hrs by Western immunoassay relative to control; format: subcellular
Target sequence in this assay (Q13547 whole entry, looked up): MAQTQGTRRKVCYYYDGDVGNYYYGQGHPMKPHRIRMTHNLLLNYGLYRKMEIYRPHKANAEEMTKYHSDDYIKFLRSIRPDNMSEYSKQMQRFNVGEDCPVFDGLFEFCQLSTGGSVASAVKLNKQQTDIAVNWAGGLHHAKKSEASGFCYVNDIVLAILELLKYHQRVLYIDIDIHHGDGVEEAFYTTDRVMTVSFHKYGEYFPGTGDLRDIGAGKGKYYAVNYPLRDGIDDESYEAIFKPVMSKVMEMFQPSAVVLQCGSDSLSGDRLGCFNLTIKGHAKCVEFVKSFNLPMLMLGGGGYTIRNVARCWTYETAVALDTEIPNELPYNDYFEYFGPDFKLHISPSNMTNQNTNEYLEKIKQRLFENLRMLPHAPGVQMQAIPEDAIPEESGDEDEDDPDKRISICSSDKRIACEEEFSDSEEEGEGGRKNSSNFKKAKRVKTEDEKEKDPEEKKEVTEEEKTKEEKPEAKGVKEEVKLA
Target sequence in this assay (Q9UK73 whole entry, looked up): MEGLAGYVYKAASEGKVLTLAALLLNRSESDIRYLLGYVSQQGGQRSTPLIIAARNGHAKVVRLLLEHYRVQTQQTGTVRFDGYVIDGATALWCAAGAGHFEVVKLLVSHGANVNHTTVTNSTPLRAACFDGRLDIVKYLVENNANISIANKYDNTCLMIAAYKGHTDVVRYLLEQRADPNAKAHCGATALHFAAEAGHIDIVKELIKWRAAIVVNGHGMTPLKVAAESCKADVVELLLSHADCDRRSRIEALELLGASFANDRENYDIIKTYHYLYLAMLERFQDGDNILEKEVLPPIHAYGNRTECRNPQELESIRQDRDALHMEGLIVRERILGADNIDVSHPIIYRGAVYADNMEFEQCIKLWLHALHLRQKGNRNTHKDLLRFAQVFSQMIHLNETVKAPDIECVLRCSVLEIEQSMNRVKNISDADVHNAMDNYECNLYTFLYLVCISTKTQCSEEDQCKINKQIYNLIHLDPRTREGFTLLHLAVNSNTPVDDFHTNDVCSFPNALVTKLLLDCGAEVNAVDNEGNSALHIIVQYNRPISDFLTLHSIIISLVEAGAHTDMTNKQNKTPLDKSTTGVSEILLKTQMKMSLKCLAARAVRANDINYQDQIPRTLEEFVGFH

MM1.S [4] = assay: Induction of cell cycle arrest in human MM1.s cells assessed as increase in cells at Sub-G1 phase at 10 uM measured after 48 hrs by propidium iodide based flow cytometry; format: functional
[5] = target: T1, Protein fem-1 homolog B/Histone deacetylase 1; assay: PROTAC activity at FEM1B/HDAC1 in human MDA-MB-231 cell lysate assessed as protein degradation at 10 uM measured after 24 hrs by Western immunoassay relative to control; format: subcellular
Target sequence in this assay (Q13547 whole entry, looked up): as the sequence (Q13547 whole entry, looked up) above
Target sequence in this assay (Q9UK73 whole entry, looked up): as the sequence (Q9UK73 whole entry, looked up) above

MM1.S [6] = assay: Induction of apoptosis in human MM1.S cells assessed as increase in late apoptotic cells at 10 uM measured after 48 hrs by annexin V-FITC/PI staining based assay; format: functional, cell-based
[7] = target: T1, Protein fem-1 homolog B/Histone deacetylase 1; assay: PROTAC activity at FEM1B/HDAC1 in human U-87 MG cell lysate assessed as protein degradation at 10 uM measured after 24 hrs by Western immunoassay relative to control; format: subcellular
Target sequence in this assay (Q13547 whole entry, looked up): as the sequence (Q13547 whole entry, looked up) above
Target sequence in this assay (Q9UK73 whole entry, looked up): as the sequence (Q9UK73 whole entry, looked up) above

U-87 MG [8] = assay: Antiproliferative activity against human U-87 MG cells assessed as cell viability up to 50 uM measured after 72 hrs incubation by MTT assay relative to control; format: functional, U-87MG ATCC
[9] = target: T1, Protein fem-1 homolog B/Histone deacetylase 1; assay: PROTAC activity at FEM1B/HDAC1 in human MM1.S cell lysate assessed as neddylation-dependent protein degradation at 1 uM measured after 24 hrs by Western immunoassay; format: subcellular
Target sequence in this assay (Q13547 whole entry, looked up): as the sequence (Q13547 whole entry, looked up) above
Target sequence in this assay (Q9UK73 whole entry, looked up): as the sequence (Q9UK73 whole entry, looked up) above

MM1.S [10] = assay: Antiproliferative activity against human MM1.S cells assessed as cell viability up to 50 uM measured after 72 hrs incubation by MTT assay; format: functional
MDA-MB-231 [11] = assay: Antiproliferative activity against human MDA-MB-231 cells assessed as cell viability up to 50 uM measured after 72 hrs incubation by MTT assay relative to control; format: functional
MDA-MB-231 [12] = assay: Antiproliferative activity against human MDA-MB-231 cells assessed as cell viability measured after 72 hrs incubation by MTT assay; format: functional, cell-based; settings: MDA-MB-231, 72 h
[13] = target: T2, Protein deacetylase HDAC6 (Homo sapiens, UniProt Q9UBN7); assay: Inhibition of human HDAC6 using ZMAL (Z-(Ac)Lys-AMC) as substrate incubated for 90 mins by fluorescence based assay
T2 sequence (Q9UBN7 whole entry): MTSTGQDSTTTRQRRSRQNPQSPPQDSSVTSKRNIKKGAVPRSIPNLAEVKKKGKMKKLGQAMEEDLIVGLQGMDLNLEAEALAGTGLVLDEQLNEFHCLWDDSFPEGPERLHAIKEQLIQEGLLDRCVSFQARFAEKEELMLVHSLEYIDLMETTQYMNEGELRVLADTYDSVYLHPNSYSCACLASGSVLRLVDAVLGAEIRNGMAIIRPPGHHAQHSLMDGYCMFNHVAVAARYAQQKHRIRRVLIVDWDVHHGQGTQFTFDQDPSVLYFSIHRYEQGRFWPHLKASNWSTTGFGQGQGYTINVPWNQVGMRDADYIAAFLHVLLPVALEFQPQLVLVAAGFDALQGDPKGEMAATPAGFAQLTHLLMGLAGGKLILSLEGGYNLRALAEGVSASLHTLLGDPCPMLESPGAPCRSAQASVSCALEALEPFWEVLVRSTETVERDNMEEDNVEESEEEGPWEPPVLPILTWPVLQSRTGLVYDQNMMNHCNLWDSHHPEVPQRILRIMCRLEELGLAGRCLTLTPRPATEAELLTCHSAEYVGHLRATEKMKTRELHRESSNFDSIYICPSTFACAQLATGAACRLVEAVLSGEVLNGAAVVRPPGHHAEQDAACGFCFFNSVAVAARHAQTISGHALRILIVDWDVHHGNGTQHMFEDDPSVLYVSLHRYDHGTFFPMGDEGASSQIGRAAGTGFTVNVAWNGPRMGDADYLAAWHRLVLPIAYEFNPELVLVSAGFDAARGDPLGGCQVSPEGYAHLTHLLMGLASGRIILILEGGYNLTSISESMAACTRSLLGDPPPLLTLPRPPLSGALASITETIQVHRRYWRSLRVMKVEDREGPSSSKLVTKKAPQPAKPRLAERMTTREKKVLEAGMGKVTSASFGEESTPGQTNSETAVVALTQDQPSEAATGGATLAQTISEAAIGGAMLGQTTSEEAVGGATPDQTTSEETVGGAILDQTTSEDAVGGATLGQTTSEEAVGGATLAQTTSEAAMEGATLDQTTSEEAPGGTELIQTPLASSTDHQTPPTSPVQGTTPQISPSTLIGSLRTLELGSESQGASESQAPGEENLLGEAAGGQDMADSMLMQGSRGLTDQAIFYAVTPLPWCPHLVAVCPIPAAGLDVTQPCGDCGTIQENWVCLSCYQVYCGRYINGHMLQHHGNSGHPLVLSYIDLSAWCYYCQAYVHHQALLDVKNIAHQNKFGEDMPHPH

Histone deacetylase 2 = Histone deacetylase 2 (Homo sapiens, UniProt Q92769); assay: Inhibition of human HDAC2 using ZMAL (Z-(Ac)Lys-AMC) as substrate incubated for 90 mins by fluorescence based assay
Histone deacetylase 2, sequence (Q92769 whole entry): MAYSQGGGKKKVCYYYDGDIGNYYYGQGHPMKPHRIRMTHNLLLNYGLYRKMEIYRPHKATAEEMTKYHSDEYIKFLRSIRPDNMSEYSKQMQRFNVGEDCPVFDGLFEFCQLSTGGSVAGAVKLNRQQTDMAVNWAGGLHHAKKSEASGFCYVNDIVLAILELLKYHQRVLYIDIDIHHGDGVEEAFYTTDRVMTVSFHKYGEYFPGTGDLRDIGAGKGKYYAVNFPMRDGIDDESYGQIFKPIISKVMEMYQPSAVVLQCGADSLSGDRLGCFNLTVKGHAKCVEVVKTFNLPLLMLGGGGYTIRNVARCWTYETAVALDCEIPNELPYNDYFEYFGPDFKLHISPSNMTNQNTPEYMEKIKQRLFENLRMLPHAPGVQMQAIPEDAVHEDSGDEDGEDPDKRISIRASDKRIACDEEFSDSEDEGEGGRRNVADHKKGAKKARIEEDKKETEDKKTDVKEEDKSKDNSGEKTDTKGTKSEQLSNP

U-87 MG [14] = assay: Antiproliferative activity against human U-87 MG cells assessed as cell viability measured after 72 hrs incubation by MTT assay; format: functional, cell-based, U-87MG ATCC
[15] = target: T1, Protein fem-1 homolog B/Histone deacetylase 1; assay: PROTAC activity at FEM1B/HDAC1 in human MM1.S cell lysate assessed as initial degradation measured after 24 hrs by Western immunoassay; format: subcellular
Target sequence in this assay (Q13547 whole entry): as the sequence (Q13547 whole entry, looked up) above
Target sequence in this assay (Q9UK73 whole entry): as the sequence (Q9UK73 whole entry, looked up) above

Histone deacetylase 4 = Histone deacetylase 4 (Homo sapiens, UniProt P56524); assay: Inhibition of human HDAC4 using Boc-Lys(Tfa)-AMC as substrate incubated for 90 mins by fluorescence based assay; settings: read-out: IC50
Histone deacetylase 4, sequence (P56524 whole entry): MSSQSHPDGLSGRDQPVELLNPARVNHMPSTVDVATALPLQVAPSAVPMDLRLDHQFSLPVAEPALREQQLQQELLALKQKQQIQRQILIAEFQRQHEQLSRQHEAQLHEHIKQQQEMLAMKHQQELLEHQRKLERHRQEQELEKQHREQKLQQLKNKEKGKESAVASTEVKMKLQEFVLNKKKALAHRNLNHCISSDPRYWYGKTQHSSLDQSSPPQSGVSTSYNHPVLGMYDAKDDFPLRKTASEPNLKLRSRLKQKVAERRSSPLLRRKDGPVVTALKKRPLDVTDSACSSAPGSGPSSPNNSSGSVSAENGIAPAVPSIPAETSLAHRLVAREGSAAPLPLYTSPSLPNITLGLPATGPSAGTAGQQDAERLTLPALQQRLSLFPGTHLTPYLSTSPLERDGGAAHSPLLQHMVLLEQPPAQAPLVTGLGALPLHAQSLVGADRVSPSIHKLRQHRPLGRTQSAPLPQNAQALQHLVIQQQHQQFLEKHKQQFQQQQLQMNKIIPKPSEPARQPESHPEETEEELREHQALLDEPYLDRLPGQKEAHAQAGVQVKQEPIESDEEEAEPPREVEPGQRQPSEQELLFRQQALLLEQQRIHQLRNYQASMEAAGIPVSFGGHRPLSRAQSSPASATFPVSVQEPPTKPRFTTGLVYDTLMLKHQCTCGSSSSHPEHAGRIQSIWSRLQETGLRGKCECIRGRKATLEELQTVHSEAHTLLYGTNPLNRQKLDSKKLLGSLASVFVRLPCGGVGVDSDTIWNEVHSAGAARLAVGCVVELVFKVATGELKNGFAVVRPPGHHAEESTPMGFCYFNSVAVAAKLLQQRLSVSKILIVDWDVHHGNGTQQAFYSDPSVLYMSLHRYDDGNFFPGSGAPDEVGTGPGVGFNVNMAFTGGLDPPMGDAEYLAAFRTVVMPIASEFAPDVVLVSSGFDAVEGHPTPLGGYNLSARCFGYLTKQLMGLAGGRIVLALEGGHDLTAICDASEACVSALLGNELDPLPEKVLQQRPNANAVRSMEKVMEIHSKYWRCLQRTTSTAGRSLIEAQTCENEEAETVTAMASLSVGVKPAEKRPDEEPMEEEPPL

MM1.S [16] = assay: Antiproliferative activity against human MM1.S cells assessed as cell viability measured after 72 hrs by CellTiter-Glo cell viability assay; format: functional, cell-based
Histone deacetylase 1 = Histone deacetylase 1 (Homo sapiens, UniProt Q13547); assay: Inhibition of human recombinant HDAC1 using ZMAL (Z-(Ac)Lys-AMC) as substrate incubated for 90 mins by fluorescence based assay
Histone deacetylase 1, sequence (Q13547 whole entry): as the sequence (Q13547 whole entry, looked up) above

[17] = target: Protein fem-1 homolog B/Histone deacetylase 4 (Homo sapiens) (UniProt P56524+Q9UK73); assay: PROTAC activity at FEM1B/HDAC4 in human MM1.S cell lysate assessed as protein degradation at 1 uM measured after 24 hrs by Western immunoassay; format: subcellular
[18] = target: Protein fem-1 homolog B/Histone deacetylase 2 (Homo sapiens) (UniProt Q92769+Q9UK73); assay: PROTAC activity at FEM1B/HDAC2 in human MM1.S cell lysate assessed as protein degradation at 1 uM measured after 24 hrs by Western immunoassay; format: subcellular
MM1.S [19] = assay: Antiproliferative activity against human MM1.S cells assessed as cell viability measured after 72 hrs incubation by MTT assay; format: functional, cell-based
[20] = target: Protein fem-1 homolog B/Histone deacetylase 3 (Homo sapiens) (UniProt O15379+Q9UK73); assay: PROTAC activity at FEM1B/HDAC3 in human MM1.S cell lysate assessed as protein degradation at 1 uM measured after 24 hrs by Western immunoassay; format: subcellular
[21] = target: Protein fem-1 homolog B/Histone deacetylase 8 (Homo sapiens) (UniProt Q9BY41+Q9UK73); assay: PROTAC activity at FEM1B/HDAC8 in human MM1.S cell lysate assessed as protein degradation at 1 uM measured after 24 hrs by Western immunoassay; format: subcellular
[22] = target: Protein fem-1 homolog B/Protein deacetylase HDAC6 (Homo sapiens) (UniProt Q9UBN7+Q9UK73); assay: PROTAC activity at FEM1B/HDAC6 in human MM1.S cell lysate assessed as protein degradation at 1 uM measured after 24 hrs by Western immunoassay; format: subcellular
[23] = target: T1, Protein fem-1 homolog B/Histone deacetylase 1; assay: PROTAC activity at FEM1B/HDAC1 in human MM.1S cell lysate assessed as maximal initial degradation at measured after 24 hrs by Western immunoassay relative to control; format: subcellular; settings: MM1.S
Target sequence in this assay (Q13547 whole entry, looked up): as above
Target sequence in this assay (Q9UK73 whole entry, looked up): as the sequence (Q9UK73 whole entry, looked up) above

[24] = target: T1, Protein fem-1 homolog B/Histone deacetylase 1; assay: PROTAC activity at FEM1B/HDAC1 in human MM1.S cell lysate assessed as initial degradation at 1 uM measured after 24 hrs by Western immunoassay; format: subcellular
Target sequence in this assay (Q13547 whole entry, looked up): as the sequence (Q13547 whole entry, looked up) above
Target sequence in this assay (Q9UK73 whole entry, looked up): as the sequence (Q9UK73 whole entry, looked up) above

[25] = target: T1, Protein fem-1 homolog B/Histone deacetylase 1; assay: PROTAC activity at FEM1B/HDAC1 in human MM1.S cell lysate assessed as protein degradation at 1 uM measured after 24 hrs by Western immunoassay; format: subcellular
MM1.S [26] = assay: Antiproliferative activity against human MM1.S cells assessed as cell viability up to 50 uM measured after 72 hrs by CellTiter-Glo cell viability assay; format: functional, cell-based

SMILES	Activity (MM1.S [1])	Activity (MM1.S [2])	EC50 (MV4-11) [nM]	Activity (MM1.S [4])	Activity (MM1.S [6])	Activity (U-87 MG [8])	Activity (MM1.S [10])	Activity (MDA-MB-231 [11])	EC50 (MDA-MB-231 [12]) [nM]	IC50 [13] [nM]	IC50 (Histone deacetylase 2) [nM]	EC50 (U-87 MG [14]) [nM]	DC50 [15] [nM]	IC50 (Histone deacetylase 4) [nM]	IC50 (Histone deacetylase 1) [nM]	Activity [17]	Activity [18]	EC50 (MM1.S [19]) [nM]	Activity [20]	Activity [21]	also measured
CCC(=O)N(CCC#N)c1ccc2c(c1)OCCN2CC(=O)NCC(=O)Nc1ccc(C(=O)NCCCCCCC(=O)NO)cc1.O=C(O)C(F)(F)F	inactive	inactive	14100	inactive	inactive	<=25%	<=25%	<=25%	–	–	–	–	–	–	–	–	–	–	–	–	Activity [3]: inactive; Activity [5]: inactive; Activity [7]: inactive; Activity [9]: inactive
N#CCCN(C(=O)CCl)c1ccc2c(c1)OCCN2CC(=O)NCC(=O)Nc1ccc(C(=O)NCCCCCCC(=O)NO)cc1	–	–	958	–	–	–	–	–	26500	9	156	37400	257	13300	74	–	–	–	–	–	EC50 (MM1.S [16]; mm1.s): 2330 nM
N#CCCN(C(=O)CCl)c1ccc2c(c1)OCCN2CC(=O)N1CCC(C(=O)Nc2ccc(C(=O)NCCCCCCC(=O)NO)cc2)CC1	Active	Active	1140	Active	Active	–	–	–	8680	6	196	66000	482	8600	94	inactive	Active	4730	Active	inactive	Activity [22]: inactive; Emax [23]: 79.8%; Activity [24]: 61.9%; EC50 (MM1.S [16]; Homo sapiens, MM1.S, 72 h): 4730 nM; Activity [25]: Active
N#CCCN(C(=O)CCl)c1ccc2c(c1)OCCN2CC(=O)NCCCCCCCC(=O)Nc1ccc(C(=O)NCCCCCCC(=O)NO)cc1	Active	Active	358	Active	Active	–	–	–	23300	4	143	49700	228	3620	70	inactive	Active	2280	Active	inactive	Activity [22]: inactive; Emax [23]: 67.4%; Activity [24]: 52.8%; EC50 (MM1.S [16]; Homo sapiens, MM1.S, 72 h): 2280 nM; Activity [25]: Active
O=C(CCCCCCNC(=O)c1ccc(NC(=O)CCCCCCCNC(=O)COc2cccc3c2C(=O)N(C2CCC(=O)NC2=O)C3=O)cc1)NO (centres undefined)	inactive	inactive	17500	inactive	inactive	<=25%	<=25%	<=25%	–	–	–	–	–	–	–	–	–	–	–	–	Activity (MM1.S [26]): inactive
